Laboratory results published in paper PMC7330483, “Identification of a Broad-Spectrum Viral Inhibitor Targeting a Novel Allosteric Site in the RNA-Dependent RNA Polymerases of Dengue Virus and Norovirus” (Frontiers in Microbiology, 2020).
“Also recorded” adds a separate entry of the source.

Legend:
DENV RdRp [1] = molecular target: DENV RdRp; parameters: method as in Noble et al., 2016; conditions: ref Noble et al., 2016; read-out: KD DENV RdRp (literature); cited from earlier work
DENV RdRp [2] = molecular target: T1, DENV RdRp (Dengue virus type 3, UniProt Q6YMS4); test: DENV-RdRp inhibition assay (PicoGreen dsRNA formation); format: biochemical; parameters: RdRp gens of DENV; inferred from Ni-NTA purification and the pET-21a(+) vector); made in house; host or cells: Escherichia coli BL21; conditions: 40 μM compound
Description: Polymerase activity was measured by detecting the formation of double-stranded RNA (dsRNA) using the fluorescent dye PicoGreen ([Singer et al., 1997]). RdRp assays were performed in a black 96-well plates, which protects reaction mixture from light. In vitro RNA synthesis assays were performed using a single-stranded RNA poly(C) as template and GTP as substrate in a 25 μL reaction mixture. 5 μL of DENV-RdRp (20 μM), dissolved in a reaction buffer containing 20 mM Tris–HCl (pH 7.4), 2.5 mM MnCl2, 5 mM DTT, was incubated with 1 μL of 1 mM compound (RAI-5, RAI-13, RAI-14, and JF-31-MG46 served as positive control) or the compound vehicle DMSO at 30°C for 10 min. Subsequently, 1 μL of 1 mg/mL poly(C) and 2 μL of 625 μM GTP were added into the mixture for 60 min at 30°C. The final concentrations of the reaction components are 4 μM DENV-RdRp, […], 50 μM GTP, 40 μM compound, 4% DMSO, […] (pH 7.4), 2.5 mM MnCl2 and 5 mM DTT. The reaction was terminated with 10 mM EDTA. After that, 175 μL of fluorescent dye PicoGreen, diluted 200-fold with TE buffer, was added to each well for 5 min at room temperature. Microplate reader was used to quantify the amount of dsRNA at standard wavelengths (excitation 480 nm, emission 520 nm).

hNV-RdRp = hNV-RdRp inhibition assay (PicoGreen dsRNA formation); format: biochemical, Norovirus GII.4 Sydney 2012; conditions: dose response, two-fold dilutions
[3] = Cytotoxicity analysis (Cell Counting kit-8), A549; format: cell-based; conditions: human, A549 cells, CCK-8
Description: (§1) Twenty-four hour prior to the cytotoxicity assay, 4 × 10^4 RAW264.7 or A549 cells were seeded in 96-well plates. After that, 2-fold serial dilutions (from 0.625 to 40 μM) of RAI-13 were added to the cells. Cells treated with DMSO were served as the control. Cells were cultivated for 48 h, after that the cell viability was assessed by Cell Counting kit-8.

A549 cells = test: Cytotoxicity analysis (Cell Counting kit-8), A549; format: cell-based; conditions: up to 10 μM, 48 h, CCK-8
Description: as §1

DENV RdRp [4] = molecular target: T1, DENV RdRp; test: Bio-layer interferometry (BLI) binding assay, DENV RdRp
MNV(SH1603) = test: Infection assay with MNV in RAW264.7 cells (qRT-PCR); format: cell-based, murine norovirus (MNV)
[5] = oral, rat; no reference given; cited from earlier work
Jc1-Gluc HCVcc = test: Infection assay with Jc-1-Gluc HCVcc in Huh7.5.1 cells; format: cell-based, hepatitis C virus (HCV); conditions: Hepatitis C virus
Description: 2 × 10^4 per well Huh7.5.1 cells were seeded into 96-well plates for 24 h, and then cells were incubated with RAI-13 (1 μM) and Jc1-Gluc HCVcc at an MOI of 1 for 4 h. Next, the culture supernatants were replaced by Fresh medium with 1 μM RAI-13. After 48 h, we measured the amounts of infectious Jc1 HCVcc in the supernatant by detecting the activity of Gaussia luciferase (Gluc), using a Centro XS3 LB 960 luminometer.

[6] = tested on: Gaussia luciferase (Gluc); test: Effect on Gluc activity in pcDNA-Gluc transfected Huh7.5.1 cells (negative control); format: cell-based; conditions: concentrations up to 5 μM, 48 h
hNV RdRp = test: Bio-layer interferometry (BLI) binding assay, hNV RdRp; conditions: read-out: KD hNV RdRp, 1:1 binding model, global fit
[7] = Cytotoxicity analysis (Cell Counting kit-8), RAW264.7; format: cell-based; conditions: mouse, RAW264.7 cells, CCK-8
Description: as §1

RAW264.7 cells = test: as above; format: cell-based; conditions: up to 10 μM, 48 h, CCK-8
Description: as §1

DENV2 (Tr1751) = test: Infection assay with DENV2 in A549 cells (qRT-PCR); format: cell-based
Description: 5 × 10^5 per well A549 cells were seeded into 6-well plates for 24 h, and infected with DENV2 (Tr1751) at an MOI of 0.1 in the presence of RAI-13 with 2-fold dilutions (from 0.08 to 20 μM) for 4 h. The culture supernatants were replaced by Fresh medium with RAI-13 with 2-fold dilutions. Cells were harvested at 48 h.p.i. The RNA extraction kit was used to extract total RNA. The level of viral RNA was determined by qRT-PCR analysis through one-step SYBR PrimeScript RT-PCR kit ([Yi et al., 2019]). The primer pair (forward: 5′-[…]-3′ and reverse: 5′-[…]-3′) amplifies partial envelop protein E gene of DENV2. The Forward and Reverse primers were also, respectively, used for minus-strand and plus-strand RNA reverse transcription. Human glyceraldehyde-3-phosphate dehydrogenase (hGAPDH) was served as an internal control and amplified with primers 5′-ATCA[…]-3′ and 5′-[…]-3′.

VSV-G/HIV-Fluc = format: cell-based, human immunodeficiency viruses type 1 (HIV-1)

In the case of `COc1ccc(CC(=O)O)cc1-c1ccccc1` [JF-31-MG46, 2-(4-methoxy-3-phenyl-phenyl)ethanoic acid], the Kd (DENV RdRp [1]) is listed as 210 µM.
For `O=c1[nH]c2ccccc2n1C1CCN(Cc2ccc(-c3nc4cc5[nH]cnc5cc4nc3-c3ccccc3)cc2)CC1` [RAI-5, AKT inhibitor VIII], the “inhibitory effect on DENV RdRp activity” value (DENV RdRp [2]) was “no inhibitory effect” and the IC50 (hNV-RdRp) was 47.3 µM.
With `CN1CCN(c2ccc(C(=O)Nc3n[nH]c4ccc(Cc5cc(F)cc(F)c5)cc34)c(NC3CCOCC3)c2)CC1` [RAI-13, Entrectinib] the “inhibitory effect on DENV RdRp activity” value (DENV RdRp [2]) was “markedly inhibited”, the CC50 at 48 h [3] was 20.8 µM and the “cytotoxic effect on A549 cells” value (A549 cells) was “No cytotoxic effect; also recorded: did not observe apparent cytotoxicity”. The Kd (DENV RdRp [4]) was 166 µM, the “plus-strand and minus-strand RNA levels of MNV” value (MNV(SH1603); 2.5 μM, infected RAW264.7 cells) was “inhibits the synthesis of both plus-strand and minus-strand RNA” and the IC50 (MNV(SH1603); Norwalk virus, RAW264.7, in abstract, read-out: IC50 inhibition of MNV infection (abstract)) was 2.01 µM. For the same compound, the EC50 (MNV(SH1603); Norwalk virus, RAW264.7 cells, 48 h, MNV RNA by qRT-PCR, read-out: EC50 inhibition of MNV infection) was 2.01 µM, the LD50 [5] was “above 2000 mg/kg” and the inhibition at 1 µM (Jc1-Gluc HCVcc; Huh-7.5.1, 48 h, read-out: inhibition of Jc1 HCVcc infection) was 95%. For the same compound, the inhibition at 2 µM (Jc1-Gluc HCVcc; Huh-7.5.1, read-out: inhibition of HCV infection (abstract)) was 95%, the “effect on Gluc activity” value [6] was “no inhibitory effect” and the Kd (hNV RdRp) was 39.9 µM. The IC50 (hNV-RdRp) was 46.9 µM, the CC50 at 48 h [7] was 13.2 µM and the “cytotoxic effect on RAW264.7 cells” value (RAW264.7 cells) was “No cytotoxic effect; also recorded: did not observe apparent cytotoxicity”. For the same compound, the “plus-strand and minus-strand RNA levels of DENV2” value (DENV2 (Tr1751); 2 μM, infected A549 cells) was “inhibits the synthesis of both plus-strand and minus-strand RNA”, the IC50 (DENV2 (Tr1751); Dengue virus, DENV2, A549, read-out: IC50 inhibition of DENV2 infection (abstract)) was 2.43 µM and the EC50 (DENV2 (Tr1751); Dengue virus, A549 cells, 48 h, DENV2 RNA by qRT-PCR, read-out: EC50 inhibition of DENV2 infection) was 2.43 µM. The “inhibition of HIV-1 (VSV-G/HIV-Fluc) infection” value (VSV-G/HIV-Fluc) was “did not show any inhibition effect”.
In the case of `Cc1ccc(NC(=O)Nc2cc(C(F)(F)F)ccc2F)cc1Nc1ccc2c(c1)NC(=O)/C2=C\c1ccc[nH]1` [RAI-14, GNF-5837], the “inhibitory effect on DENV RdRp activity” value (DENV RdRp [2]) is reported as “no inhibitory effect” and the IC50 (hNV-RdRp) is reported as 45.5 µM.
